Reference: ChEMBL document CHEMBL1649249, “Antifungal activity of micafungin in serum” (Antimicrob Agents Chemother, 2009)
*1 amine or outer side, *2 acyl side, *3 side chain or, on linkers, in order; H or OH if unused. Where a SMILES comes first, the peptide text is derived from it. Bridges are numbered along the chain shown (N, C = ends). [ ]: non-standard residue; d: D form. The star is where a group is joined. hTyr(3S-OH,4S-OH,3'-OSO3H) = N[C@H](C(=O)O)[C@H](O)[C@@H](O)c1ccc(O)c(OS(=O)(=O)O)c1; Orn(4R-OH,5R-OH) = O=C([C@H](C[C@@H](O)[C@@H](O)N[*:3])N[*:1])[*:2]; Pro(3S-OH,4S-Me) = C[C@H]1CN[C@H](C(=O)O)[C@H]1O; X1 = CCCCCOc1ccc(-c2cc(-c3ccc(C(=O)*)cc3)no2)cc1; Gln(3R-OH) = NC(=O)C[C@@H](O)[C@H](N)C(=O)O; Hyp = O=C(O)[C@@H]1C[C@@H](O)CN1

What was measured:
Candida albicans [1] = assay: Antifungal activity against Candida albicans FP633 collected from peak serum sample on day 15 from patient with acute lymphoblastic leukemia at 1.2 mg/kg by disk diffusion method; type: functional
Candida albicans [2] = assay: Antifungal activity against Candida albicans FP633 collected from peak serum sample on day 43 from patient with myelodysplastic syndrome at 1.4 mg/kg by disk diffusion method in presence of human serum; type: functional
[3] = Ratio of MIC for Candida albicans FP633 collected from trough serum sample on day 15 from patient with acute lymphoblastic leukemia at 1.2 mg/kg to Cmax for patient with acute lymphoblastic leukemia at 1.2 mg/kg; type: functional
Candida albicans [4] = assay: Antifungal activity against Candida albicans FP633 collected from peak serum sample on day 17 from patient with acute lymphoblastic leukemia at 1.2 mg/kg by disk diffusion method in presence of human serum; type: functional
[5] = Cmax in patient with malignant lymphoma infected with Candida albicans FP633 at 3.9 mg/kg administered once daily after 10 days by HPLC; type: ADME, organism-based; set-up: dose 3.9 mg/kg; conditions: human, in vivo
[6] = Ratio of MIC for Candida albicans FP633 collected from peak serum sample on day 15 from patient with acute myeloid leukemia at 1.1 mg/kg in presence of human serum to Cmax for patient with acute myeloid leukemia at 1.1 mg/kg; type: functional
Serum = assay: Protein binding in human serum; type: ADME, cell-free
[7] = Ratio of MIC for Candida albicans FP633 collected from peak serum sample on day 17 from patient with acute lymphoblastic leukemia at 1.2 mg/kg to Cmax for patient with acute lymphoblastic leukemia at 1.2 mg/kg; type: functional
Candida albicans [8] = assay: Antifungal activity against Candida albicans FP633 collected from trough serum sample on day 15 from patient with acute lymphoblastic leukemia at 1.2 mg/kg by disk diffusion method in presence of human serum; type: functional
Candida albicans [9] = assay: Antifungal activity against Candida albicans FP633 collected from peak serum sample on day 43 from patient with myelodysplastic syndrome at 1.4 mg/kg by disk diffusion method; type: functional
Candida albicans [10] = assay: Antifungal activity against Candida albicans FP633 collected from peak serum sample on day 12 patient with malignant lymphoma at 2.6 mg/kg by disk diffusion method in presence of human serum; type: functional
[11] = Ratio of MIC for Candida albicans FP633 collected from peak serum sample on day 15 from patient with acute lymphoblastic leukemia at 1.2 mg/kg to Cmax for patient with acute lymphoblastic leukemia at 1.2 mg/kg; type: functional
[12] = Ratio of MIC for Candida albicans FP633 collected from peak serum sample on day 43 from patient with malignant lymphoma at 4.8 mg/kg in presence of human serum to Cmax for patient with malignant lymphoma at 4.8 mg/kg; type: functional
Candida albicans [13] = assay: Antifungal activity against Candida albicans FP633 collected from trough serum sample on day 15 from patient with acute lymphoblastic leukemia at 1.2 mg/kg by disk diffusion method; type: functional
Candida albicans [14] = assay: Antifungal activity against Candida albicans FP633 collected from peak serum sample on day 43 patient with malignant lymphoma at 4.8 mg/kg by disk diffusion method in presence of human serum; type: functional
[15] = Cmax in patient with acute lymphoblastic leukemia infected with Candida albicans FP633 at 1.2 mg/kg administered once daily after 15 days by HPLC; type: ADME, organism-based; set-up: dose 1.2 mg/kg; conditions: human, in vivo
Candida albicans [16] = assay: Antifungal activity against Candida albicans FP633 collected from peak serum sample on day 43 patient with malignant lymphoma at 4.8 mg/kg by disk diffusion method; type: functional
Candida albicans [17] = assay: Antifungal activity against Candida albicans FP633 collected from trough serum sample on day 15 from patient with acute myeloid leukemia at 1.1 mg/kg by disk diffusion method; type: functional
[18] = Ratio of MIC for Candida albicans FP633 collected from peak serum sample on day 43 from patient with malignant lymphoma at 4.8 mg/kg to Cmax for patient with malignant lymphoma at 4.8 mg/kg; type: functional
Candida albicans [19] = assay: Antifungal activity against Candida albicans FP633 collected from peak serum sample on day 12 patient with malignant lymphoma at 2.6 mg/kg by disk diffusion method; type: functional
[20] = Ratio of MIC for Candida albicans FP633 collected from peak serum sample on day 43 from patient with myelodysplastic syndrome at 3.9 mg/kg to Cmax for patient with myelodysplastic syndrome at 3.9 mg/kg; type: functional
[21] = Cmax in patient with malignant lymphoma infected with Candida albicans FP633 at 2.6 mg/kg administered once daily after 12 days by HPLC; type: ADME, organism-based; set-up: dose 2.6 mg/kg; conditions: human, in vivo
Candida albicans [22] = assay: Antimicrobial activity against Candida albicans FP633 in presence of heat inactivated mouse serum; type: functional
[23] = Ratio of MIC for Candida albicans FP633 collected from peak serum sample on day 15 from patient with acute lymphoblastic leukemia at 1.2 mg/kg in presence of human serum to Cmax for patient with acute lymphoblastic leukemia at 1.2 mg/kg; type: functional
[24] = Ratio of MIC for Candida albicans FP633 collected from trough serum sample on day 15 from patient with acute lymphoblastic leukemia at 1.2 mg/kg in presence of human serum to Cmax for patient with acute lymphoblastic leukemia at 1.2 mg/kg; type: functional
[25] = Cmax in patient with myelodysplastic syndrome infected with Candida albicans FP633 at 1.4 mg/kg administered once daily after 45 days by HPLC; type: ADME, organism-based; set-up: dose 1.4 mg/kg; conditions: human, in vivo
[26] = Cmax in patient with acute myeloid leukemia infected with Candida albicans FP633 at 1.1 mg/kg administered once daily after 15 days by HPLC; type: ADME, organism-based; set-up: dose 1.1 mg/kg; conditions: human, in vivo
[27] = Cmax in patient with malignant lymphoma infected with Candida albicans FP633 at 5.8 mg/kg administered once daily after 8 days by HPLC; type: ADME, organism-based; set-up: dose 5.8 mg/kg; conditions: human, in vivo
Candida albicans [28] = assay: Antifungal activity against Candida albicans FP633 collected from trough serum sample on day 15 from patient with acute myeloid leukemia at 1.1 mg/kg by disk diffusion method in presence of human serum; type: functional
Candida albicans [29] = assay: Antifungal activity against Candida albicans FP633 collected from peak serum sample on day 15 from patient with acute myeloid leukemia at 1.1 mg/kg by disk diffusion method; type: functional
Candida albicans [30] = assay: Antifungal activity against Candida albicans FP633 collected from peak serum sample on day 17 from patient with acute lymphoblastic leukemia at 1.2 mg/kg by disk diffusion method; type: functional
Candida albicans [31] = assay: Antifungal activity against Candida albicans FP633 collected from peak serum sample on day 8 from patient with acute myeloid leukemia at 1.1 mg/kg by disk diffusion method in presence of human serum; type: functional
[32] = Ratio of MIC for Candida albicans FP633 collected from trough serum sample on day 8 from patient with acute myeloid leukemia at 1.1 mg/kg in presence of human serum to Cmax for patient with acute myeloid leukemia at 1.1 mg/kg; type: functional
[33] = Cmax in patient with malignant lymphoma infected with Candida albicans FP633 at 4.8 mg/kg administered once daily after 43 days by HPLC; type: ADME, organism-based; set-up: dose 4.8 mg/kg; conditions: human, in vivo
[34] = Ratio of MIC for Candida albicans FP633 collected from trough serum sample on day 15 from patient with acute myeloid leukemia at 1.1 mg/kg to Cmax for patient with acute myeloid leukemia at 1.1 mg/kg; type: functional
[35] = Ratio of MIC for Candida albicans FP633 collected from trough serum sample on day 15 from patient with acute myeloid leukemia at 1.1 mg/kg in presence of human serum to Cmax for patient with acute myeloid leukemia at 1.1 mg/kg; type: functional
Candida albicans [36] = assay: Antifungal activity against Candida albicans FP633 collected from peak serum sample on day 8 from patient with acute myeloid leukemia at 1.1 mg/kg by disk diffusion method; type: functional
[37] = Ratio of MIC for Candida albicans FP633 collected from peak serum sample on day 8 from patient with acute myeloid leukemia at 1.1 mg/kg to Cmax for patient with acute myeloid leukemia at 1.1 mg/kg; type: functional
[38] = Ratio of MIC for Candida albicans FP633 collected from peak serum sample on day 15 from patient with acute myeloid leukemia at 1.1 mg/kg to Cmax for patient with acute myeloid leukemia at 1.1 mg/kg; type: functional
Candida albicans [39] = assay: Antifungal activity against Candida albicans FP633 collected from trough serum sample on day 8 from patient with acute myeloid leukemia at 1.1 mg/kg by disk diffusion method in presence of human serum; type: functional
[40] = Ratio of MIC for Candida albicans FP633 collected from trough serum sample on day 8 from patient with acute myeloid leukemia at 1.1 mg/kg to Cmax for patient with acute myeloid leukemia at 1.1 mg/kg; type: functional
[41] = Ratio of MIC for Candida albicans FP633 collected from peak serum sample on day 12 from patient with malignant lymphoma at 2.6 mg/kg to Cmax for patient with malignant lymphoma at 2.6 mg/kg; type: functional
[42] = Ratio of MIC for Candida albicans FP633 collected from peak serum sample on day 8 from patient with acute myeloid leukemia at 1.1 mg/kg in presence of human serum to Cmax for patient with acute myeloid leukemia at 1.1 mg/kg; type: functional
Candida albicans [43] = assay: Antifungal activity against Candida albicans FP633 collected from trough serum sample on day 8 from patient with acute myeloid leukemia at 1.1 mg/kg by disk diffusion method; type: functional
[44] = Cmax in patient with acute myeloid leukemia infected with Candida albicans FP633 at 1.1 mg/kg administered once daily after 8 days by HPLC; type: ADME, organism-based; set-up: dose 1.1 mg/kg; conditions: human, in vivo
[45] = Ratio of MIC for Candida albicans FP633 collected from peak serum sample on day 43 from patient with myelodysplastic syndrome at 3.9 mg/kg in presence of human serum to Cmax for patient with myelodysplastic syndrome at 3.9 mg/kg; type: functional
Candida albicans [46] = assay: Antifungal activity against Candida albicans FP633 collected from peak serum sample on day 15 from patient with acute lymphoblastic leukemia at 1.2 mg/kg by disk diffusion method in presence of human serum; type: functional
Candida albicans [47] = assay: Antifungal activity against Candida albicans FP633 collected from peak serum sample on day 15 from patient with acute myeloid leukemia at 1.1 mg/kg by disk diffusion method in presence of human serum; type: functional
[48] = Ratio of MIC for Candida albicans FP633 collected from peak serum sample on day 17 from patient with acute lymphoblastic leukemia at 1.2 mg/kg in presence of human serum to Cmax for patient with acute lymphoblastic leukemia at 1.2 mg/kg; type: functional
[49] = Ratio of MIC for Candida albicans FP633 collected from peak serum sample on day 12 from patient with malignant lymphoma at 2.6 mg/kg in presence of human serum to Cmax for patient with malignant lymphoma at 2.6 mg/kg; type: functional
[50] = Cmax in patient with acute lymphoblastic leukemia infected with Candida albicans FP633 at 1.2 mg/kg administered once daily after 17 days by HPLC; type: ADME, organism-based; set-up: dose 1.2 mg/kg; conditions: human, in vivo

CCCCCOc1ccc(-c2cc(-c3ccc(C(=O)N[C@H]4C[C@@H](O)[C@@H](O)NC(=O)[C@@H]5[C@@H](O)[C@@H](C)CN5C(=O)[C@H]([C@H](O)CC(N)=O)NC(=O)[C@H]([C@H](O)[C@@H](O)c5ccc(O)c(OS(=O)(=O)O)c5)NC(=O)[C@@H]5C[C@@H](O)CN5C(=O)[C@H]([C@@H](C)O)NC4=O)cc3)no2)cc1 [MICAFUNGIN] (X1-[Orn(4R-OH,5R-OH)]T[Hyp][hTyr(3S-OH,4S-OH,3'-OSO3H)][Gln(3R-OH)][Pro(3S-OH,4S-Me)]; lactam 1-C)
Activity (Candida albicans [1]): 3.3 µg/mL
Activity (Candida albicans [2]): 4.2 µg/mL
Ratio [3]: 40
Activity (Candida albicans [4]): 5.9 µg/mL
Cmax [5]: 34200 ng/mL
Ratio [6]: 92
PB (Serum): 99.8%
Ratio [7]: 44
Activity (Candida albicans [8]): 1.6 µg/mL
Activity (Candida albicans [9]): 2.5 µg/mL
Activity (Candida albicans [10]): 22.1 µg/mL
Ratio [11]: 52
Ratio [12]: 94
Activity (Candida albicans [13]): 0.9 µg/mL
Activity (Candida albicans [14]): 34.8 µg/mL
Cmax [15]: 6400 ng/mL
Activity (Candida albicans [16]): 14.1 µg/mL
Activity (Candida albicans [17]): 1 µg/mL
Ratio [18]: 38
Activity (Candida albicans [19]): 6 µg/mL
Ratio [20]: 38
Cmax [21]: 16400 ng/mL
MIC (Candida albicans [22]): 1 µg/mL
Ratio [23]: 109
Ratio [24]: 71
Cmax [25]: 6700 ng/mL
Cmax [26]: 5600 ng/mL
Cmax [27]: 33600 ng/mL
Activity (Candida albicans [28]): 1.7 µg/mL
Activity (Candida albicans [29]): 2.5 µg/mL
Activity (Candida albicans [30]): 2.9 µg/mL
Activity (Candida albicans [31]): 8.1 µg/mL
Ratio [32]: 78
Cmax [33]: 37100 ng/mL
Ratio [34]: 32
Ratio [35]: 58
Activity (Candida albicans [36]): 3.8 µg/mL
Ratio [37]: 42
Ratio [38]: 45
Activity (Candida albicans [39]): 2.1 µg/mL
Ratio [40]: 42
Ratio [41]: 37
Ratio [42]: 96
Activity (Candida albicans [43]): 1.1 µg/mL
Cmax [44]: 8400 ng/mL
Ratio [45]: 63
Activity (Candida albicans [46]): 7 µg/mL
Activity (Candida albicans [47]): 5.2 µg/mL
Ratio [48]: 91
Ratio [49]: 135
Cmax [50]: 6500 ng/mL
